ChEMBL document CHEMBL1909046, “DrugMatrix in vitro pharmacology data”

Legend:
[1] = DRUGMATRIX: Glutamate, NMDA, Agonism radioligand binding (ligand: [3H] CGP-39653); assay type: cell membranes, Rattus norvegicus, Wistar, Cerebral cortex, Membrane; conditions: Not Active = under 50% inhibition at 10 µM
[2] = DRUGMATRIX: Phosphodiesterase PDE4 enzyme inhibition (substrate: [3H]cAMP + cAMP); conditions: u-937; Not Active = under 50% inhibition at 10 µM
Adenosine receptor A3 = target: T1, Adenosine receptor A3 (Homo sapiens, UniProt P0DMS8); assay type: cell membranes, CHO-K1, Membrane;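 also: radioligand binding assay with AB-MECA serving as the labeled ligand; in other assays of this panel Not Active means under 50% inhibition at 10 µM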
T1 sequence (P0DMS8 whole entry): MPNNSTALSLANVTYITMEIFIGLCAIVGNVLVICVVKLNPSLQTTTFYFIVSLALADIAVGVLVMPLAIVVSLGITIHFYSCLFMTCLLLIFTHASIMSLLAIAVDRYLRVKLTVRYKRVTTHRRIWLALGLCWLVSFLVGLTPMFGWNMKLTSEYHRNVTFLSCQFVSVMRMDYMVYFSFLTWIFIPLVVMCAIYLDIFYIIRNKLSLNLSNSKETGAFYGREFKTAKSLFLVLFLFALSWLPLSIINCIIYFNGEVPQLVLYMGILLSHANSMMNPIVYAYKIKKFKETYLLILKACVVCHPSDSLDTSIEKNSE

[3] = DRUGMATRIX: Tumor Necrosis Factor (TNF), Non-Selective radioligand binding (ligand: [125I] TNF-alpha); assay type: cell membranes, Membrane; conditions: u-937; Not Active = under 50% inhibition at 10 µM
[4] = DRUGMATRIX: Calcium Channel Type L, Phenylalkylamine radioligand binding (ligand: [3H] (-)-Desmethoxyverapamil (D-888)); assay type: cell membranes, Rattus norvegicus, Wistar, Brain, Membrane; conditions: Not Active = under 50% inhibition at 10 µM
Cytochrome P450 1A2 = target: T2, Cytochrome P450 1A2 (Homo sapiens, UniProt P05177); conditions: bti-tn-5b1-4; also: in other assays of this panel Not Active means under 50% inhibition at 10 µM
T2 sequence (P05177 whole entry): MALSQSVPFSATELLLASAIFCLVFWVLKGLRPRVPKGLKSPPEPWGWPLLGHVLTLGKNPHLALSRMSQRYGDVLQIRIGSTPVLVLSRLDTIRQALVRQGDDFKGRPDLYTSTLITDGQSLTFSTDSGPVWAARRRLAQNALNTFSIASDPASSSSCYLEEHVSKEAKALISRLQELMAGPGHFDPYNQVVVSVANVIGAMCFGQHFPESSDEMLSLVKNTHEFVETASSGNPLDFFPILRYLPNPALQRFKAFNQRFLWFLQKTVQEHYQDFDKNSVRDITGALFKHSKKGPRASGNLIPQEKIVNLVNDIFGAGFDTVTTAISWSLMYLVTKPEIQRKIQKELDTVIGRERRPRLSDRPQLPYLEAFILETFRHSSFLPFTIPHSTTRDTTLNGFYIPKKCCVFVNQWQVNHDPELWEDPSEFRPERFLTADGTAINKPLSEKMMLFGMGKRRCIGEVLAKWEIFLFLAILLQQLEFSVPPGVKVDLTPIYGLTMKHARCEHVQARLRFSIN

With `C=C(C)[C@H]1Cc2c(ccc3c2O[C@@H]2COc4cc(OC)c(OC)cc4[C@@H]2C3=O)O1` [ROTENONE] the IC50 [1] was “Not Active”, the Ki [1] was “Not Active” and the IC50 [2] was “Not Active”. For the same compound, the Ki [2] was “Not Active”, the IC50 (Adenosine receptor A3; cho-k1) was “Not Active” and the IC50 [3] was “Not Active”. For the same compound, the Ki [3] was “Not Active”, the IC50 [4] was “Not Active” and the Ki [4] was “Not Active”. For the same compound, the IC50 (Cytochrome P450 1A2) was “Not Active” and the Ki (Cytochrome P450 1A2) was “Not Active”.

With `O=C(O)C(Cl)(Cl)Cl` [TRICHLOROACETIC ACID] the IC50 [1] was “Not Active”, the Ki [1] was “Not Active” and the IC50 [2] was “Not Active”. For the same compound, the Ki [2] was “Not Active”, the IC50 (Adenosine receptor A3; cho-k1) was “Not Active” and the IC50 [3] was “Not Active”. The Ki [3] was “Not Active”, the IC50 [4] was “Not Active” and the Ki [4] was “Not Active”. The IC50 (Cytochrome P450 1A2) was “Not Active” and the Ki (Cytochrome P450 1A2) was “Not Active”.

For `CNS(=O)(=O)Cc1ccc2[nH]cc(CCN(C)C)c2c1`, the IC50 [1] was “Not Active”, the Ki [1] was “Not Active” and the IC50 [2] was “Not Active”. For the same compound, the Ki [2] was “Not Active”, the IC50 (Adenosine receptor A3; cho-k1) was “Not Active” and the IC50 [3] was “Not Active”. The Ki [3] was “Not Active”, the IC50 [4] was “Not Active” and the Ki [4] was “Not Active”. For the same compound, the IC50 (Cytochrome P450 1A2) was “Not Active” and the Ki (Cytochrome P450 1A2) was “Not Active”.

In the case of `CCCc1nn(C)c2c(=O)[nH]c(-c3cc(S(=O)(=O)N4CCN(C)CC4)ccc3OCC)nc12`, the IC50 [1] is reported as “Not Active”, the Ki [1] is reported as “Not Active” and the IC50 [2] is reported as “Not Active”. For the same compound, the Ki [2] was “Not Active”, the IC50 (Adenosine receptor A3; cho-k1) was “Not Active” and the IC50 [3] was “Not Active”. For the same compound, the Ki [3] was “Not Active”, the IC50 [4] was “Not Active” and the Ki [4] was “Not Active”. For the same compound, the IC50 (Cytochrome P450 1A2) was “Not Active” and the Ki (Cytochrome P450 1A2) was “Not Active”.

With `Nc1nc2c(c(=O)[nH]1)N(C=O)C(CNc1ccc(C(=O)N[C@@H](CCC(=O)O)C(=O)O)cc1)CN2` (some centres not stated) [LEUCOVORIN] the IC50 [1] was “Not Active”, the Ki [1] was “Not Active” and the IC50 [2] was “Not Active”. The Ki [2] was “Not Active”, the IC50 (Adenosine receptor A3; cho-k1) was “Not Active” and the IC50 [3] was “Not Active”. The Ki [3] was “Not Active”, the IC50 [4] was “Not Active” and the Ki [4] was “Not Active”. The IC50 (Cytochrome P450 1A2) was “Not Active” and the Ki (Cytochrome P450 1A2) was “Not Active”.

For `C#CCN(C)[C@H](C)Cc1ccccc1` [SELEGILINE], the IC50 [1] was “Not Active”, the Ki [1] was “Not Active” and the IC50 [2] was “Not Active”. For the same compound, the Ki [2] was “Not Active”, the IC50 (Adenosine receptor A3; cho-k1) was “Not Active” and the IC50 [3] was “Not Active”. For the same compound, the Ki [3] was “Not Active”, the IC50 [4] was “Not Active” and the Ki [4] was “Not Active”. The IC50 (Cytochrome P450 1A2) was “Not Active” and the Ki (Cytochrome P450 1A2) was “Not Active”.

With `COc1cc(C(=O)NS(=O)(=O)c2ccccc2C)ccc1Cc1cn(C)c2ccc(NC(=O)OC3CCCC3)cc12` [ZAFIRLUKAST] the IC50 [1] was “Not Active”, the Ki [1] was “Not Active” and the IC50 [2] was “Not Active”. The Ki [2] was “Not Active”, the IC50 (Adenosine receptor A3; read-out: IC50) was 1.36 µM and the Ki (Adenosine receptor A3; read-out: Ki) was 0.77 µM. For the same compound, the IC50 [3] was “Not Active”, the Ki [3] was “Not Active” and the IC50 [4] was “Not Active”. For the same compound, the Ki [4] was “Not Active”, the IC50 (Cytochrome P450 1A2) was “Not Active” and the Ki (Cytochrome P450 1A2) was “Not Active”.

For STANNOUS FLUORIDE, the IC50 [1] was “Not Active”, the Ki [1] was “Not Active” and the IC50 [2] was “Not Active”. The Ki [2] was “Not Active”, the IC50 (Adenosine receptor A3; cho-k1) was “Not Active” and the Ki (Adenosine receptor A3; cho-k1) was “Not Active”. The IC50 [3] was “Not Active”, the Ki [3] was “Not Active” and the IC50 [4] was “Not Active”. The Ki [4] was “Not Active”, the IC50 (Cytochrome P450 1A2) was “Not Active” and the Ki (Cytochrome P450 1A2) was “Not Active”.

With `C[C@]12CC[C@H]3[C@@H](CCC4=CC(=O)CC[C@@]43C)[C@@H]1CC[C@@H]2O` [TESTOSTERONE] the IC50 [1] was “Not Active”, the Ki [1] was “Not Active” and the IC50 [2] was “Not Active”. For the same compound, the Ki [2] was “Not Active”, the IC50 (Adenosine receptor A3; cho-k1) was “Not Active” and the IC50 [3] was “Not Active”. For the same compound, the Ki [3] was “Not Active”, the IC50 [4] was “Not Active” and the Ki [4] was “Not Active”. The IC50 (Cytochrome P450 1A2) was “Not Active” and the Ki (Cytochrome P450 1A2) was “Not Active”.

In the case of `COc1ccc(/C=C/C(=O)Nc2ccccc2C(=O)O)cc1OC`, the IC50 [1] is reported as “Not Active”, the Ki [1] is reported as “Not Active” and the IC50 [2] is reported as “Not Active”. For the same compound, the Ki [2] was “Not Active”, the IC50 (Adenosine receptor A3; cho-k1) was “Not Active” and the IC50 [3] was “Not Active”. The Ki [3] was “Not Active”, the IC50 [4] was “Not Active” and the Ki [4] was “Not Active”. The IC50 (Cytochrome P450 1A2) was “Not Active” and the Ki (Cytochrome P450 1A2) was “Not Active”.
